We go through 15 molecules from patent US20230131192A1, “1H-PYRAZOLO[4,3-d]PYRIMIDINE COMPOUNDS AS TOLL-LIKE RECEPTOR 7 (TLR7) AGONISTS” (BRISTOL-MYERS SQUIBB COMPANY, priority 2020, published 2023).

For one test, the target named is T1, human TLR7 (Homo sapiens, UniProt Q9NYK1).
T1 construct: host or cells: HEK-Blue TLR7 cells (engineered human embryonic kidney cells)
T1 sequence (Q9NYK1 27-1049): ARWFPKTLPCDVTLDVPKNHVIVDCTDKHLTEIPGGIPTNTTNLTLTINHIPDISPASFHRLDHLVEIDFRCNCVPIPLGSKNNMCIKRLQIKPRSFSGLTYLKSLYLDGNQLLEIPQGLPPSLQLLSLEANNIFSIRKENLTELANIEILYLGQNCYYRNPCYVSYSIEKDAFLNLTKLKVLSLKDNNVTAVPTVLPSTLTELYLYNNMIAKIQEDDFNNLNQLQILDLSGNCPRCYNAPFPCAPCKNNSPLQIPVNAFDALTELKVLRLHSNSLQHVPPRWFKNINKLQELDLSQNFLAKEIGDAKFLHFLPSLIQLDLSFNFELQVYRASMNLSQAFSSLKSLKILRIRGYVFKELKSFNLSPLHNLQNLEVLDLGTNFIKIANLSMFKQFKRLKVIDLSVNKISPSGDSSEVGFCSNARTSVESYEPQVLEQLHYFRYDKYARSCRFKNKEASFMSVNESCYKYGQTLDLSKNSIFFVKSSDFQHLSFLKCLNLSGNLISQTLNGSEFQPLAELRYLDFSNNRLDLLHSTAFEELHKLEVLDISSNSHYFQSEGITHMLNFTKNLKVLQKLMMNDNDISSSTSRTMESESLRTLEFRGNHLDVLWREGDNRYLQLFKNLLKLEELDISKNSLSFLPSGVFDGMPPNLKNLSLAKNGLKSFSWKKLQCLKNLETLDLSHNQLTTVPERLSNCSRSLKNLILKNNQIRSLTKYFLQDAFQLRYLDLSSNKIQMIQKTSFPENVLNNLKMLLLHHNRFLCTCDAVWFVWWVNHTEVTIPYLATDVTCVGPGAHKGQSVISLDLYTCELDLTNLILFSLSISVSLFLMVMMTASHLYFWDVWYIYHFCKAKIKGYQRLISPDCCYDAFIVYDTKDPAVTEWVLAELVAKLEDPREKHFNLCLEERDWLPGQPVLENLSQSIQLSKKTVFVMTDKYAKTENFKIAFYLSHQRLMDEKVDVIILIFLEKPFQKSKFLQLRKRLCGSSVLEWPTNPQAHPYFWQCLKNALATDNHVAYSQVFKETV
As to the kind of experiment: Human TLR7 agonist (reporter) activity assay, HEK-Blue TLR7 cells, SEAP reporter. In kind it is cell-based. To be noted: 18 h treatment, average where assay was performed multiple times, read-out: hTLR7 Agonism EC50. On the procedure:
This procedure describes a method for assaying human TLR7 (hTLR7) agonist activity of the compounds disclosed in this specification.
HEK-Blue™ TLR7 cells were added to each well of a 384-well tissue-culture plate (15,000 cells per well) and incubated 16-18 h at 37° C., 5% CO2. Compounds (100 nl) were dispensed into wells containing the HEK-Blue™ TLR cells and the treated cells were incubated at 37° C., 5% CO2. After 18 h treatment ten microliters of freshly-prepared Quanti-Blue™ reagent (Invivogen) was added to each well, incubated for 30 min (37° C., 5% CO2) and SEAP levels measured using an Envision plate reader (OD=620 nm). The half maximal effective concentration values (EC50; compound concentration which induced a response halfway between the assay baseline and maximum) were calculated.

Another test deals with CD69. As to the kind of experiment: Induction of CD69 in human whole blood. In kind it is cell-based. The note with it: 17 hrs, CD69 surface staining, 100% set to 1 uM of resiquimod, average where assay was performed multiple times, read-out: hWB CD69 EC50. On the procedure: The induction of Type I interferon (IFN) MX-1 genes and the B-cell activation marker CD69 are downstream events that occur upon activation of the TLR7 pathway. The following is a human whole blood assay that measures their induction in response to a TLR7 agonist.
Heparinized human whole blood was harvested from human subjects and treated with test TLR7 agonist compounds at 1 mM. The blood was diluted with RPMI 1640 media and Echo was used to predot 10 nL per well giving a final concentration of 1 uM (10 nL in 10 uL of blood). After mixing on a shaker for 30 sec, the plates were covered and placed in a 37° C. chamber for o/n=17 hrs. Fixing/lysis buffer was prepared (5×→1× in H2O, warm at 37° C.; Cat # BD 558049) and kept the perm buffer (on ice) for later use.
For surface markers staining (CD69): prepared surface Abs: 0.045 ul hCD14-FITC (ThermoFisher Cat # MHCD1401)+0.6 ul hCD19-ef450 (ThermoFisher Cat #48-0198-42)+1.5 ul hCD69-PE (cat # BD555531)+0.855 ul FACS buffer. Added 3 ul/well, spin1000 rpm for 1 min and mixed on shaker for 30 sec, put on ice for 30 mins. Stop stimulation after 30 minutes with 70 uL of prewarmed 1× fix/lysis buffer and use Feliex mate to resuspend (15 times, change tips for each plate) and incubate at 37 C for 10 minutes.
Centrifuge at 2000 rpm for 5 minutes aspirate with HCS plate washer, mix on shaker for 30 sec and then wash with 70 uL in dPBS and pelleted 2×s (2000 rpm for 5 min) and 50 ul wash in FACS buffer pelleted 1×s(2000 rpm for 5 min). Mix on shaker for 30 sec. For Intracellular markers staining (MX-1): Add 50 ul of BD Perm buffer III and mix on shaker for 30 sec. Incubate on ice for 30 minutes (in the dark). Wash with 50 uL of FACS buffer 2× (spin @2300 rpm×5 min after perm) followed by mixing on shaker for 30 sec. Resuspended in 20 ul of FACS buffer containing MX1 antibody ( )(4812)-Alexa 647: Novus Biologicals #NBP2-43704AF647) 20 ul FACS bf+0.8 ul hlgG+0.04 ul MX-1. Spin 1000 rpm for 1 min, mix on shaker for 30se and the samples were incubated at RT in the dark for 45 minutes followed by washing 2×FACS buffer (spin @2300 rpm×5 min after perm). Resuspend 20 ul (35 uL total per well) of FACS buffer and cover with foil and place in 4° C. to read the following day. Plates were read on iQuePlus. The results were loaded into toolset and […] curves are generated in curve master. The y-axis 100% is set to 1 uM of resiquimod.

SMILES strings stand for the structures.

As usually defined, the EC50 is the concentration at which the effect is half-maximal. As for `COc1cc(CNC2CCOCC2)ccc1Cn1ncc2nc(N)nc(NCC[C@H](O)C3CC3)c21` [Compound 109A, (1S)-3-({5-amino-1-[(2-methoxy-4-{[(oxan-4-yl)amino]methyl}phenyl)methyl]-1H-pyrazolo[4,3-d]pyrimidin-7-yl}amino)-1-cyclopropylpropan-1-ol], the values for the EC50 on human TLR7 and in the test on CD69 were 338 nM and 75.4 nM, respectively. The matching figures for `COc1cc(CN2CCS(=O)(=O)CC2)ccc1Cn1ncc2nc(N)nc(NCc3noc(C)n3)c21` [Compound 121, 4-({4-[(5-amino-7-{[(5-methyl-1,2,4-oxadiazol-3-yl)methyl]amino}-1H-pyrazolo[4,3-d]pyrimidin-1-yl)methyl]-3-methoxyphenyl}methyl)-1λ^6-thiomorpholine-1,1-dione]: 656 nM and 289 nM. Take `COc1cc(CNC2CCN(S(C)(=O)=O)CC2)ccc1Cn1ncc2nc(N)nc(NCc3noc(C)n3)c21` [Compound 123, 1-[(4-{[(1-methanesulfonylpiperidin-4-yl)amino]methyl}-2-methoxyphenyl)methyl]-N7-[(5-methyl-1,2,4-oxadiazol-3-yl)methyl]-1H-pyrazolo[4,3-d]pyrimidine-5,7-diamine]: the EC50 on human TLR7 came out at 196 nM; in the test on CD69 it was 18.2 nM.

Take `COc1cc(CN2CCN(C)CC2)ccc1Cn1nc(C)c2nc(N)nc(NCc3cc(C)on3)c21` [Compound 113, 1-({2-methoxy-4-[(4-methylpipeazin-1-yl)methyl]phenyl}methyl)-3-methyl-N7-[(5-methyl-1,2-oxazol-3-yl)methyl]-1H-pyrazolo[4,3-d]pyrimidine-5,7-diamine]: the EC50 at human TLR7 stood at 100 nM; in the test with CD69, 40.5 nM. The like results for `COc1cc(CN2CC(OC)C2)ccc1Cn1ncc2nc(N)nc(NCc3cc(C)on3)c21` [Compound 106, 1-({2-methoxy-4-[(3-methoxyazetidin-1-yl)methyl]phenyl}methyl)-N7-[(5-methyl-1,2-oxazol-3-yl)methyl]-1H-pyrazolo[4,3-d]pyrimidine-5,7-diamine] were, in that order, 57 nM and 9.5 nM.

For `COc1cc(CN2CCN(CCO)CC2)ccc1Cn1nc(C)c2nc(N)nc(NCc3noc(C)n3)c21` [Compound 132, 2-[4-({4-[(5-amino-3-methyl-7-{[(5-methyl-1,2,4-oxadiazol-3-yl)methyl]amino}-1H-pyrazolo[4,3-d]pyrimidin-1-yl)methyl]-3-methoxyphenyl}methyl)piperazin-1-yl]ethan-1-ol], the EC50 on human TLR7 was determined as 424 nM. `COc1cc(CN2CCN(CCO)CC2)cnc1Cn1ncc2nc(N)nc(NCc3noc(C)n3)c21` [Compound 131, 2-[4-({6-[(5-amino-7-{[(5-methyl-1,2,4-oxadiazol-3-yl)methyl]amino}-1H-pyrazolo[4,3-d]pyrimidin-1-yl)methyl]-5-methoxypyridin-3-yl}methyl)piperazin-1-yl]ethan-1-ol]: the concentration for a half-maximal effect (EC50) on human TLR7 is 1000 nM; in the test on CD69, 72.7 nM. The like results for `COc1cc(CN2CC(OC)C2)ccc1Cn1ncc2nc(N)nc(N[C@H](CO)CC3CC3)c21` [Compound 125, (2S)-2-{[5-amino-1-({2-methoxy-4-[(3-methoxyazetidin-1-yl)methyl]phenyl}methyl)-1H-pyrazolo[4,3-d]pyrimidin-7-yl]amino}-3-cyclopropylpropan-1-ol] were, in that order, 138 nM and 15.2 nM.

As for `COc1cc(CN2CCN(CCO)CC2)ccc1Cn1ncc2nc(N)nc(NCc3noc(C4CC4)n3)c21` [Compound 128, 2-[4-({4-[(5-amino-7-{[(5-cyclopropyl-1,2,4-oxadiazol-3-yl)methyl]amino}-1H-pyrazolo[4,3-d]pyrimidin-1-yl)methyl]-3-methoxyphenyl}methyl)piperazin-1-yl]ethan-1-ol], the concentration giving a half-maximal response (EC50) at human TLR7 turned out to be 33.7 nM; in the test on CD69, 7.5 nM.

For the molecule `COc1cc(CN2CCN(CCO)CC2)ccc1Cn1nc(C)c2nc(N)nc(NCC[C@H](O)C3CC3)c21` [Compound 126, (1S)-3-({5-amino-1-[(4-{[4-(2-hydroxyethyl)piperazin-1-yl]methyl}-2-methoxyphenyl)methyl]-3-methyl-1H-pyrazolo[4,3-d]pyrimidin-7-yl}amino)-1-cyclopropylpropan-1-ol], the EC50 stood at 740 nM on human TLR7 and 25.3 nM with CD69. The matching figures for `COc1cc(CNC2CN(S(C)(=O)=O)C2)ccc1Cn1ncc2nc(N)nc(NCc3noc(C)n3)c21` [Compound 122, 1-[(4-{[(1-methanesulfonylazetidin-3-yl)amino]methyl}-2-methoxyphenyl)methyl]-N7-[(5-methyl-1,2,4-oxadiazol-3-yl)methyl]-1H-pyrazolo[4,3-d]pyrimidine-5,7-diamine]: 570 nM and 221 nM. For `COc1cc(CO)ccc1Cn1ncc2nc(N)nc(NCc3noc(C)n3)c21` [Compound 116, {4-[(5-amino-7-{[(5-methyl-1,2,4-oxadiazol-3-yl)methyl]amino}-1H-pyrazolo[4,3-d]pyrimidin-1-yl)methyl]-3-methoxyphenyl}methanol], the EC50 at human TLR7 is 729 nM. Turning to `COc1cc(CNC2CCOCC2)ccc1Cn1nc(C)c2nc(N)nc(NCc3noc(C)n3)c21` [Compound 133, 1-[(2-methoxy-4-{[(oxan-4-yl)amino]methyl}phenyl)methyl]-3-methyl-N7-[(5-methyl-1,2,4-oxadiazol-3-yl)methyl]-1H-pyrazolo[4,3-d]pyrimidine-5,7-diamine], the EC50 at human TLR7 is 1110 nM.

On to `COc1cc(CN2CCN(CCO)CC2)ccc1Cn1ncc2nc(N)nc(NCc3cc(C)on3)c21` [Compound 105, 2-[4-({4-[(5-amino-7-{[(5-methyl-1,2-oxazol-3-yl)methyl]amino}-1H-pyrazolo[4,3-d]pyrimidin-1-yl)methyl]-3-methoxyphenyl}methyl)piperazin-1-yl]ethan-1-ol], for which the EC50 at human TLR7 came to 23.4 nM. `COc1cc(CN2CCN(C)CC2)ccc1Cn1nc(C)c2nc(N)nc(NCc3noc(C)n3)c21` [Compound 134, 1-({2-methoxy-4-[(4-methylpiperazin-1-yl)methyl]phenyl}methyl)-3-methyl-N7-[(5-methyl-1,2,4-oxadiazol-3-yl)methyl]-1H-pyrazolo[4,3-d]pyrimidine-5,7-diamine]: the EC50 on human TLR7 was 159 nM.
